From ChEMBL document CHEMBL4007427, “Inhibition of the Aldehyde Dehydrogenase 1/2 Family by Psoralen and Coumarin Derivatives” (J Med Chem, 2017) come the findings set out here.

pIC50: −log10 of the molar value.

In data set [1] the target is T1, Aldehyde dehydrogenase 1A1 (Homo sapiens) (UniProt P00352).
T1 sequence (whole entry): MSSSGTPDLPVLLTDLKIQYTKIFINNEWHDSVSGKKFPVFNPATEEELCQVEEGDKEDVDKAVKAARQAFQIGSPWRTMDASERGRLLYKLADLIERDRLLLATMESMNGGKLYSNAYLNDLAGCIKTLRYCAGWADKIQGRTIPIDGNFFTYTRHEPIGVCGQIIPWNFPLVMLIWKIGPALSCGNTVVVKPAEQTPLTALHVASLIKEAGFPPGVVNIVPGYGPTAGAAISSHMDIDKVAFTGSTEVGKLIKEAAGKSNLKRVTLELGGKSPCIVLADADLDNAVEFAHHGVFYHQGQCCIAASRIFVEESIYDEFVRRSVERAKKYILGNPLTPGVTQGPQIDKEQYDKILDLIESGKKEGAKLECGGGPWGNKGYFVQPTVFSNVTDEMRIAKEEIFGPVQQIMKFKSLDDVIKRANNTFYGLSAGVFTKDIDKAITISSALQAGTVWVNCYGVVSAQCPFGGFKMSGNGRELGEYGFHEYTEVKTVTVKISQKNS
As to the kind of experiment: Inhibition of full length recombinant human ALDH1A1 expressed in Escherichia coli BL21(DE3) assessed as remaining dehydrogenase activity by measuring NAD(P)H level at 10 uM preincubated for 2 mins followed by addition of propionaldehyde as substrate in presence of NAD+ by spectrophotometric method.

Data set [2] addresses T2, Aldehyde dehydrogenase, mitochondrial (Homo sapiens) (UniProt P05091).
T2 sequence (whole entry): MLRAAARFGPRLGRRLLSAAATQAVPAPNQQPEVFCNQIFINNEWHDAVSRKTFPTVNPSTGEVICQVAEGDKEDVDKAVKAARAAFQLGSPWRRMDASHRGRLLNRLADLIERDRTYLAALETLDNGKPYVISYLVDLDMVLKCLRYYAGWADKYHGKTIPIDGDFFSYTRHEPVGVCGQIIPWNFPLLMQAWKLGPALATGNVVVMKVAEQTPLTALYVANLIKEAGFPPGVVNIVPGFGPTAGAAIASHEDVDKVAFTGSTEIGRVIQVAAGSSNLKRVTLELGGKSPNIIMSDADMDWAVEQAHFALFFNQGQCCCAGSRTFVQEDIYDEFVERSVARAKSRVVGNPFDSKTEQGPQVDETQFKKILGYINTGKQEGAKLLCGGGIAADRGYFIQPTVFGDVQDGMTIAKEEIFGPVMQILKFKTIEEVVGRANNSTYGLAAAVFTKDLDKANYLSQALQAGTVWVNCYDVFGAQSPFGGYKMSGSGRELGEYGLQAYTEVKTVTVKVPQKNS
As to the kind of experiment: Inhibition of full length recombinant human ALDH2 expressed in Escherichia coli assessed as remaining dehydrogenase activity by measuring NAD(P)H level at 10 uM preincubated for 2 mins followed by addition of propionaldehyde as substrate in presence of NAD+ by spectrophotometric method.

Data set [3] concerns the target T3, Aldehyde dehydrogenase, dimeric NADP-preferring (Homo sapiens) (UniProt P30838).
T3 sequence (whole entry): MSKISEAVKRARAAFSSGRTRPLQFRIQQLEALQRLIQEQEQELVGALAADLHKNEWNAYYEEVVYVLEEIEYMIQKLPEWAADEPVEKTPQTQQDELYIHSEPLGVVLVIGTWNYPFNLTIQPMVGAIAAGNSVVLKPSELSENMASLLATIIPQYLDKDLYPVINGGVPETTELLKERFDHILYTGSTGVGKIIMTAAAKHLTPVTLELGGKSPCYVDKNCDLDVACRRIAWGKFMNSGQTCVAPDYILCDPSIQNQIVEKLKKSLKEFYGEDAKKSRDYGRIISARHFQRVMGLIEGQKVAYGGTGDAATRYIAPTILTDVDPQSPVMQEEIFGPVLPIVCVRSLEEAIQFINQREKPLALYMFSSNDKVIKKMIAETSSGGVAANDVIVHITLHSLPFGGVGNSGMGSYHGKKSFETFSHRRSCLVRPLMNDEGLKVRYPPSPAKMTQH
As to the kind of experiment: Inhibition of full length recombinant human ALDH3A1 expressed in Escherichia coli BL21(DE3) assessed as remaining dehydrogenase activity by measuring NAD(P)H level at 10 uM preincubated for 2 mins followed by addition of propionaldehyde as substrate in presence of NAD+ by spectrophotometric method.

Data set [4] in a line: Lipophilicity, log P of the compound. The format is physicochemical. Particulars: octanol/water; call rule not given here.
In data set [5] the target is T4, Aldehyde dehydrogenase, mitochondrial (Homo sapiens, UniProt P05091).
T4 sequence (P05091 whole entry): T2 sequence (whole entry)
Description: Inhibition of full length recombinant human ALDH2 expressed in Escherichia coli assessed as reduction in dehydrogenase activity by measuring NAD(P)H level preincubated for 2 mins followed by addition of propionaldehyde as substrate in presence of NAD+ by spectrophotometric method

Data set [6] addresses T5, Aldehyde dehydrogenase, dimeric NADP-preferring (Homo sapiens, UniProt P30838).
T5 sequence (P30838 whole entry): T3 sequence (whole entry)
As to the kind of experiment: Inhibition of full length recombinant human ALDH3A1 expressed in Escherichia coli BL21(DE3) assessed as reduction in dehydrogenase activity by measuring NAD(P)H level preincubated for 2 mins followed by addition of benzaldehyde as substrate in presence of NADP+ by spectrophotometric method.

For data set [7], the target named is T6, Aldehyde dehydrogenase 1A1 (Homo sapiens, UniProt P00352).
T6 sequence (P00352 whole entry): T1 sequence (whole entry)
Description: Inhibition of full length recombinant human ALDH1A1 expressed in Escherichia coli BL21(DE3) assessed as reduction in dehydrogenase activity by measuring NAD(P)H level preincubated for 2 mins followed by addition of propionaldehyde as substrate in presence of NAD+ by spectrophotometric method

The term logP denotes a log measure of how a compound divides between an organic and an aqueous phase. High values mean a more lipophilic compound, low ones a more hydrophilic compound. `CC(=O)C(C)Oc1ccc2c(c1)oc(=O)c1ccccc12` (stereo not drawn): the Activity worked out at 58.7% in data set [1], 64.4% in data set [2] and 103% in data set [3]. The log partition coefficient (logP) in data set [4] was determined as 2.64.
Take `Cc1oc2cc3oc(=O)cc(Cc4ccccc4)c3cc2c1C`: the Activity in data set [1] is 57%; in data set [2], 73.7%; in data set [3], 81.6%. The compound further yielded a logP in data set [4] of 4.8.
As for `C=CCOc1ccc2c(C)cc(=O)oc2c1`, the Activity in data set [1] came to 35.5%; in data set [2], 94.6%; in data set [3] it was 9.46%. In data set [4], the logP was found to be 3.01.
With `CC(C)=CCOc1ccc2c(C)cc(=O)oc2c1`, the Activity in data set [1] amounted to 37.3%; in data set [2], 93.3%; in data set [3] it was 23.7%. This compound also returned a logP in data set [4] of 3.94.
For `COc1ccc2c(C)cc(=O)oc2c1` [HYMECROMONE METHYL ETHER], the Activity in data set [1] worked out at 80.2%; in data set [2], 94.8%; in data set [3] it was 36.4%. This compound also displayed a logP in data set [4] of 2.46.
For `Cc1cc(=O)oc2cc(OC(C)C(=O)O)ccc12` (stereo not drawn) the same measures were 97.5%, 99.3%, 93.9% and 1.63.
For `Cc1cc(=O)oc2cc(OCC(=O)Nc3ccccc3)ccc12` the same measures were 49.6%, 95%, 95.5% and 2.85.
For the compound `Cc1cc(=O)oc2cc(OCC(N)=O)ccc12`, the figures for the Activity in data set [1], in data set [2] and in data set [3] were 28.5%, 89.5% and 67.1%, respectively. The logP in data set [4] came to 1.71.
Usually pIC50 stands for the negative decadic logarithm of the IC50, by convention in mol/L. Read a high pIC50 as a low IC50. Consider `Cc1oc2cc3oc(=O)c4ccccc4c3cc2c1C`, for which the Activity in data set [1] worked out at 82.4%; in data set [2], 42.2%; in data set [3] it was 93.4%. Moreover, in data set [4], the logP came to 3.89. In data set [5], this compound had a pIC50 of 6.82. The IC50 entry in data set [6] and in data set [7] was “Not Active” in each case.
Consider `Cc1c(CCC(=O)O)c(=O)oc2cc(O)ccc12`, for which the Activity in data set [1] was found to be 96.6%; in data set [2] it was 101%; in data set [3], 105%. In data set [4], the logP amounted to 1.82.
For `Cc1oc2c(C)c3oc(=O)c(C)c(C)c3cc2c1C` the same measures were 78.4%, 87.2%, 102% and 4.36.
Regarding `Cc1c(C)c2cc3c4c(oc3cc2oc1=O)CCCC4`, the values for the Activity in data set [1], in data set [2] and in data set [3] were 64.3%, 61.3% and 96.1%, respectively. The logP in data set [4] was 4.48.
In the same order, the values of `Cc1c(C)c2cc3c(C(C)(C)C)coc3cc2oc1=O` are 94.5%, 69.7%, 87% and 3.94.
In the same order, the values of `CC(=O)C(C)Oc1ccc2ccc(=O)oc2c1` (stereo not drawn) are 91.4%, 93.3%, 106% and 1.4.
Regarding `CC(=O)C(C)Oc1ccc2c(C)cc(=O)oc2c1` (stereo not drawn), the Activity in data set [1] was 68.7%; in data set [2], 94.4%; in data set [3], 101%. In data set [4], the logP came to 1.72.
Take `Cc1c(C)c2c(cc(C)c3c(C)coc32)oc1=O`: the Activity in data set [1] was found to be 71.5%; in data set [2] it was 46.4%; in data set [3], 98.1%. In data set [4], this compound showed a logP of 3.92. The pIC50 in data set [5] was 6.82. The IC50 result in data set [6] and in data set [7] was “Not Active” throughout.
As to `CC(=O)COc1ccc2c(C)cc(=O)oc2c1`, the figures for the Activity in data set [1], in data set [2] and in data set [3] were 52.2%, 99.1% and 64.1%, respectively. The logP in data set [4] came to 1.37.
On to `Cc1c(C)c2cc3c(-c4ccccc4)coc3cc2oc1=O`, for which the Activity was determined as 87.4% in data set [1], 92.8% in data set [2] and 88.9% in data set [3]. Besides, in data set [4], the logP came to 4.8.
For `Cc1c(C)c2cc3c(=O)ccoc3c(C)c2oc1=O` the same measures were 67.4%, 80.2%, 79.2% and 2.1.
As for `Cc1coc2cc3oc(=O)c(Cc4ccccc4)c(C)c3cc12`, the figures for the Activity in data set [1], in data set [2] and in data set [3] were 58.5%, 83.6% and 90.3%, respectively. The compound further had a logP in data set [4] of 4.98.
In the same order, the values of `Cc1cc(=O)oc2cc(OCC(=O)c3ccccc3)ccc12` are 29%, 97.8%, 67.1% and 3.19.
In the same order, the values of `Cc1cc2oc(=O)cc(C)c2cc1NC(=O)C(C)C` are 59.8%, 96.3%, 105% and 2.05.
In the same order, the values of `Cc1oc2cc3oc(=O)c(CCC(=O)NCc4ccccc4)c(C)c3cc2c1C` are 93.6%, 69.8%, 68.3% and 4.52.
